# Data published in patent US6340689B1 (priority 1999, dated 2002).
# Experiments:
# [1] = test system: L. pneumophila serogroup 1; assay: microbe, parasite or virus in culture; type: cell-based, Legionella pneumophila; details: for MIC50 / MIC / MIC90: Legionella pneumophila; for MIC: 48 h, read-out: MIC Range; for MIC90 / MIC 90%: L. pneumophila serogroup 1 (n = 85)
# [2] = test system: isolates of Legionella pneumophila and other Legionella spp.; assay: microbe, parasite or virus in culture; type: cell-based
# [3] = test system: L. longbeacheae; assay: organism not typed; type: cell-based; details: for MIC: 48 h, read-out: MIC Range
# [4] = test system: Erythromycin-susceptible Legionella spp. other than L. pneumophila; type: cell-based; details: for Mean PAE: Erythromycin-susceptible Legionella spp. (n = 13), 4 × MIC, mean ± SD
# [5] = test system: Other Legionella spp.; assay: microbe, parasite or virus in culture; type: cell-based; details: for MIC: 48 h, read-out: MIC Range
# [6] = test system: Erythromycin-susceptible L. pneumophila; type: cell-based, Legionella pneumophila; details: for Mean PAE: Erythromycin-susceptible L. pneumophila (n = 15), 4 × MIC, mean ± SD
# [7] = test system: L. pneumophila serogroup 2; assay: microbe, parasite or virus in culture; type: cell-based; details: Legionella pneumophila; for MIC: 48 h, read-out: MIC Range
# [8] = test system: L. pneumophila serogroup 6; assay: microbe, parasite or virus in culture; type: cell-based; details: Legionella pneumophila; for MIC: 48 h, read-out: MIC Range
# [9] = test system: L. dumoffii; assay: organism not typed; type: cell-based; details: for MIC: 48 h, read-out: MIC Range
# [10] = test system: L. pneumophila serogroup 8, 9; assay: microbe, parasite or virus in culture; type: cell-based; details: Legionella pneumophila; for MIC: 48 h, read-out: MIC Range
# [11] = test system: L. micadadei; assay: organism not typed; type: cell-based, L. micdadei; details: for MIC: 48 h, read-out: MIC Range
# [12] = test system: L. pneumophila serogroup 4; assay: microbe, parasite or virus in culture; type: cell-based; details: Legionella pneumophila; for MIC: 48 h, read-out: MIC Range
# [13] = test system: L. pneumophila serogroup 3; assay: microbe, parasite or virus in culture; type: cell-based; details: Legionella pneumophila; for MIC: 48 h, read-out: MIC Range
# [14] = test system: L. pneumophila serogroup 5; assay: microbe, parasite or virus in culture; type: cell-based; details: Legionella pneumophila; for MIC: 48 h, read-out: MIC Range
# [15] = test system: L. pneumophila serogroup 7; assay: microbe, parasite or virus in culture; type: cell-based; details: Legionella pneumophila; for MIC: 48 h, read-out: MIC Range
# [16] = test system: L. dumoffii and L. longbeachae; assay: organism not typed; type: cell-based
# [17] = test system: L. pneumophila serogroups 1-9; type: cell-based, Legionella pneumophila
compound,measurement,setting,value
N[C@@H]1[C@H]2CN(c3nc4c(cc3F)c(=O)c(C(=O)O)cn4-c3ccc(F)cc3F)C[C@@H]12 [Trovafloxacin],MIC50,[1],≤ 0.004 µg/mL
same,MIC,[1],0.004 to 0.016 µg/mL
same,MIC90,[1],≤ 0.004 µg/mL
same,MIC90,[2],≤ 0.008 µg/mL
same,MIC50,[3],≤ 0.004 µg/mL
same,MIC90,[3],≤ 0.004 µg/mL
same,MIC,[3],≤ 0.004 µg/mL
same,Mean PAE,[4],1.22 ± 1 h
same,MIC50,[5],≤ 0.004 µg/mL
same,MIC90,[5],≤ 0.004 µg/mL
same,MIC,[5],≤ 0.004 µg/mL
same,Mean PAE,[6],1.71 ± 1 h
same,MIC50,[7],≤ 0.004 µg/mL
same,MIC90,[7],≤ 0.004 µg/mL
same,MIC,[7],≤ 0.004 µg/mL
same,MIC50,[8],≤ 0.004 µg/mL
same,MIC90,[8],≤ 0.004 µg/mL
same,MIC,[8],≤ 0.004 µg/mL
same,MIC50,[9],0.008 µg/mL
same,MIC90,[9],0.008 µg/mL
same,MIC,[9],0.004 to 0.008 µg/mL
same,MIC50,[10],≤ 0.004 µg/mL
same,MIC90,[10],≤ 0.004 µg/mL
same,MIC,[10],≤ 0.004 µg/mL
same,MIC50,[11],≤ 0.004 µg/mL
same,MIC90,[11],≤ 0.004 µg/mL
same,MIC,[11],≤ 0.004 µg/mL
same,MIC50,[12],≤ 0.004 µg/mL
same,MIC90,[12],≤ 0.004 µg/mL
same,MIC,[12],≤ 0.004 µg/mL
same,MIC50,[13],≤ 0.004 µg/mL
same,MIC90,[13],≤ 0.004 µg/mL
same,MIC,[13],≤ 0.004 µg/mL
same,MIC50,[14],≤ 0.004 µg/mL
same,MIC90,[14],≤ 0.004 µg/mL
same,MIC,[14],0.004 to 0.008 µg/mL
same,MIC50,[15],≤ 0.004 µg/mL
same,MIC90,[15],≤ 0.004 µg/mL
same,MIC,[15],≤ 0.004 µg/mL
"CO/N=C1\CN(c2nc3c(cc2F)c(=O)c(C(=O)O)cn3C2CC2)CC1CN (racemic) [Gemifloxacin, (R,S)-7-(3-aminomethyl-4-methoxyiminopyrrolidin-1-yl)-1-cyclopropyl-6-fluoro-4-oxo-1,4-dihydro-1,8-naphthyridine-3-carboxylic acid]",MIC 90%,[1],≦0.004 mg/L
same,MIC 90%,[1]; listed as gemifloxacin,0.016 µg/mL
same,MIC50,[1],0.016 µg/mL
same,MIC,[1],0.008 to 0.06 µg/mL
same,MIC90,[2],0.016 µg/mL
same,MIC50,[3],0.06 µg/mL
same,MIC90,[3],0.06 µg/mL
same,MIC,[3],0.016 to 0.06 µg/mL
same,Mean PAE,[4],2.27 ± 2 h
same,PAE (mean PAE),"[4]; erythromycin-susceptible Legionella spp. other than L. pneumophila, four times the MIC",2.27 h
same,"mean PAE longer than that of trovafloxacin, moxifloxacin and clarithromycin",[4]; erythromycin-susceptible Legionella spp. other than pneumophila,≥ 1 h
same,MIC90,[16],0.06 µg/mL
same,MIC50,[5],0.03 µg/mL
same,MIC90,[5],0.06 µg/mL
same,MIC,[5],0.016 to 0.06 µg/mL
same,Mean PAE,[6],3.49 ± 3 h
same,"mean PAE longer than that of trovafloxacin, levofloxacin and clarithromycin",[6]; erythromycin-susceptible L. pneumophila,≥ 1 h
same,MIC50,[7],0.008 µg/mL
same,MIC90,[7],0.016 µg/mL
same,MIC,[7],0.008 to 0.016 µg/mL
same,MIC range,"[17]; L. pneumophila serogroups 1-9, text",0.008 to 0.06 µg/mL
same,fold more active than erythromycin,[17]; against L. pneumophila strains tested,5-6 fold
same,MIC50,[8],0.016 µg/mL
same,MIC90,[8],0.03 µg/mL
same,MIC,[8],0.008 to 0.03 µg/mL
same,MIC50,[9],0.06 µg/mL
same,MIC90,[9],0.06 µg/mL
same,MIC,[9],0.06 µg/mL
same,MIC50,[10],0.016 µg/mL
same,MIC90,[10],0.016 µg/mL
same,MIC,[10],0.016 µg/mL
same,MIC50,[11],0.016 µg/mL
same,MIC90,[11],0.03 µg/mL
same,MICs fold more active than erythromycin,[11],5 fold
same,MIC,[11],0.008 to 0.03 µg/mL
same,MIC50,[12],0.016 µg/mL
same,MIC90,[12],0.03 µg/mL
same,MIC,[12],0.008 to 0.03 µg/mL
same,MIC50,[13],0.016 µg/mL
same,MIC90,[13],0.016 µg/mL
same,MIC,[13],0.008 to 0.016 µg/mL
same,MIC50,[14],0.03 µg/mL
same,MIC90,[14],0.03 µg/mL
same,MIC,[14],0.03 to 0.06 µg/mL
same,MIC50,[15],0.008 µg/mL
same,MIC90,[15],0.016 µg/mL
same,MIC,[15],0.008 to 0.016 µg/mL
C[C@H]1COc2c(N3CCN(C)CC3)c(F)cc3c(=O)c(C(=O)O)cn1c23 [Levofloxacin],MIC50,[1],0.016 µg/mL
same,MIC,[1],0.004 to 0.016 µg/mL
same,MIC90,[1],0.016 µg/mL
same,MIC90,[2],0.016 µg/mL
same,MIC50,[3],0.016 µg/mL
same,MIC90,[3],0.016 µg/mL
same,MIC,[3],0.008 to 0.016 µg/mL
same,Mean PAE,[4],1.35 ± 1 h
same,MIC50,[5],0.016 µg/mL
same,MIC90,[5],0.016 µg/mL
same,MIC,[5],0.008 to 0.06 µg/mL
same,Mean PAE,[6],2.14 ± 2 h
same,MIC50,[7],0.008 µg/mL
same,MIC90,[7],0.008 µg/mL
same,MIC,[7],0.004 to 0.016 µg/mL
same,MIC50,[8],0.008 µg/mL
same,MIC90,[8],0.016 µg/mL
same,MIC,[8],0.008 to 0.016 µg/mL
same,MIC50,[9],0.016 µg/mL
same,MIC90,[9],0.016 µg/mL
same,MIC,[9],0.016 µg/mL
same,MIC50,[10],0.008 µg/mL
same,MIC90,[10],0.016 µg/mL
same,MIC,[10],0.008 to 0.016 µg/mL
same,MIC50,[11],0.016 µg/mL
same,MIC90,[11],0.016 µg/mL
same,MIC,[11],0.008 to 0.016 µg/mL
same,MIC50,[12],0.016 µg/mL
same,MIC90,[12],0.016 µg/mL
same,MIC,[12],0.004 to 0.016 µg/mL
same,MIC50,[13],0.008 µg/mL
same,MIC90,[13],0.016 µg/mL
same,MIC,[13],0.008 to 0.016 µg/mL
same,MIC50,[14],0.008 µg/mL
same,MIC90,[14],0.016 µg/mL
same,MIC,[14],0.004 to 0.016 µg/mL
same,MIC50,[15],0.008 µg/mL
same,MIC90,[15],0.016 µg/mL
same,MIC,[15],0.008 to 0.016 µg/mL
COc1c(N2C[C@@H]3CCCN[C@@H]3C2)c(F)cc2c(=O)c(C(=O)O)cn(C3CC3)c12 [Moxifloxacin],MIC50,[1],0.016 µg/mL
same,MIC,[1],0.004 to 0.03 µg/mL
same,MIC90,[1],0.016 µg/mL
same,MIC90,[2],0.016 µg/mL
same,MIC50,[3],0.016 µg/mL
same,MIC90,[3],0.03 µg/mL
same,MIC,[3],0.008 to 0.03 µg/mL
same,Mean PAE,[4],1.18 ± 2 h
same,MIC50,[5],0.008 µg/mL
same,MIC90,[5],0.03 µg/mL
same,MIC,[5],0.008 to 0.03 µg/mL
same,Mean PAE,[6],3.59 ± 3 h
same,MIC50,[7],0.008 µg/mL
same,MIC90,[7],0.008 µg/mL
same,MIC,[7],0.004 to 0.016 µg/mL
same,MIC50,[8],0.008 µg/mL
same,MIC90,[8],0.016 µg/mL
same,MIC,[8],0.004 to 0.016 µg/mL
same,MIC50,[9],0.03 µg/mL
same,MIC90,[9],0.03 µg/mL
same,MIC,[9],0.008 to 0.03 µg/mL
same,MIC50,[10],0.016 µg/mL
same,MIC90,[10],0.016 µg/mL
same,MIC,[10],0.016 µg/mL
same,MIC50,[11],0.016 µg/mL
same,MIC90,[11],0.03 µg/mL
same,MICs fold more active than erythromycin,[11],5 fold
same,MIC,[11],0.008 to 0.03 µg/mL
same,MIC50,[12],0.016 µg/mL
same,MIC90,[12],0.016 µg/mL
same,MIC,[12],0.004 to 0.016 µg/mL
same,MIC50,[13],0.008 µg/mL
same,MIC90,[13],0.016 µg/mL
same,MIC,[13],0.004 to 0.016 µg/mL
same,MIC50,[14],0.016 µg/mL
same,MIC90,[14],0.016 µg/mL
same,MIC,[14],0.004 to 0.03 µg/mL
same,MIC50,[15],≤ 0.004 µg/mL
same,MIC90,[15],0.016 µg/mL
same,MIC,[15],0.004 to 0.016 µg/mL
